Test results as given in ChEMBL document CHEMBL1201862, “PubChem BioAssay data set” (2004).
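Protocol summary: plate cells (96-well), add compound at 5 concentrations, incubate 48 h, interpolate endpoints linearly. GI50 = concentration required for 50% inhibition of growth.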 Active and inactive are the calls of the source. Rule as the data show it: active = GI50 up to about 1.1 µM and inactive = higher.

What was measured:
Test in all cases: NCI anticancer screen, dose series, 48 h
OVCAR-4 = tested on: OVCAR-4
SK-MEL-28 = tested on: SK-MEL-28
UO-31 = tested on: UO-31
UACC-257 = tested on: UACC-257
OVCAR-3 = tested on: OVCAR-3
HCT-15 = tested on: HCT-15
MCF7 = tested on: MCF7
HL-60 = tested on: HL-60
786-0 = tested on: 786-0
EKVX = tested on: EKVX
SF-539 = tested on: SF-539
SNB-19 = tested on: SNB-19
HCT-116 = tested on: HCT-116
SW-620 = tested on: SW-620
A498 = tested on: A498
K562 = tested on: K562
UACC-62 = tested on: UACC-62
CCRF-CEM = tested on: CCRF-CEM
RXF 393 = tested on: RXF 393

SMILES | GI50 (OVCAR-4) | GI50 (SK-MEL-28) | GI50 (UO-31) | GI50 (UACC-257) | GI50 (OVCAR-3) | GI50 (HCT-15) [µM] | GI50 (MCF7) | GI50 (HL-60) | GI50 (786-0) | GI50 (EKVX) | GI50 (SF-539) | GI50 (SNB-19) | GI50 (HCT-116) | GI50 (SW-620) | GI50 (A498) | GI50 (K562) | GI50 (UACC-62) | GI50 (CCRF-CEM) | GI50 (RXF 393)
CC1=CC(=O)/C(=C/NC(=S)NCCc2ccccc2)C(=O)O1 | > 100 µM (inactive) | > 100 µM (inactive) | > 100 µM (inactive) | > 100 µM (inactive) | > 100 µM (inactive) | > 100 | > 100 µM (inactive) | > 100 µM (inactive) | 31 µM (inactive) | > 100 µM (inactive) | > 100 µM (inactive) | > 100 µM (inactive) | 27.2 µM (inactive) | > 100 µM (inactive) |  |  |  |  | 
CC/C(=C/OC)P1(=O)OC(C)(C)CN1C(C)(C)C (centres undefined) | > 100 µM (inactive) |  | > 100 µM (inactive) | > 100 µM (inactive) | > 100 µM (inactive) | > 100 | > 100 µM (inactive) |  | > 100 µM (inactive) | > 100 µM (inactive) | > 100 µM (inactive) | > 100 µM (inactive) | > 100 µM (inactive) | > 100 µM (inactive) | > 100 µM (inactive) | > 100 µM (inactive) | > 100 µM (inactive) |  | 
CCN(CC)CC1CN=C(N)O1 (centres undefined) | > 100 µM (inactive) | > 100 µM (inactive) | > 100 µM (inactive) | > 100 µM (inactive) | > 100 µM (inactive) | > 100 | > 100 µM (inactive) |  | > 100 µM (inactive) | > 100 µM (inactive) | > 100 µM (inactive) | > 100 µM (inactive) | > 100 µM (inactive) | > 100 µM (inactive) | > 100 µM (inactive) | > 100 µM (inactive) | > 100 µM (inactive) | > 100 µM (inactive) | > 100 µM (inactive)
Nn1c(Cc2ccccc2)n[nH]c1=O | > 100 µM (inactive) | > 100 µM (inactive) | > 100 µM (inactive) | > 100 µM (inactive) | > 100 µM (inactive) | > 100 | > 100 µM (inactive) | > 100 µM (inactive) | > 100 µM (inactive) | > 100 µM (inactive) | > 100 µM (inactive) | > 100 µM (inactive) | > 100 µM (inactive) | > 100 µM (inactive) | > 100 µM (inactive) | > 100 µM (inactive) | > 100 µM (inactive) | > 100 µM (inactive) | 
CSC(=S)NN=C1CCCC1.CSC(=S)NN=C1CCCC1.[Zn+2] | 52.5 µM (inactive) | 72.4 µM (inactive) | 13.4 µM (inactive) | 24 µM (inactive) | 24.6 µM (inactive) | 1.99 | 34.7 µM (inactive) |  | 33.5 µM (inactive) | 55.1 µM (inactive) | 21.3 µM (inactive) | 40.9 µM (inactive) | 14.7 µM (inactive) | 17.1 µM (inactive) | > 100 µM (inactive) | 50.4 µM (inactive) | 28.2 µM (inactive) | < 0.01 µM (active) | 28.4 µM (inactive)
O=C(/C=C/c1c(O)nc2ccccc2c1O)CC(=O)C(=O)Nc1cccc(O)c1 | > 100 µM (inactive) | > 100 µM (inactive) | > 100 µM (inactive) | > 100 µM (inactive) | > 100 µM (inactive) | > 100 | > 100 µM (inactive) | > 100 µM (inactive) | > 100 µM (inactive) | > 100 µM (inactive) | > 100 µM (inactive) | > 100 µM (inactive) | > 100 µM (inactive) | > 100 µM (inactive) | > 100 µM (inactive) | > 100 µM (inactive) | > 100 µM (inactive) | 21.1 µM (inactive) | 
CCN(CC)c1ccc(C2Nc3ccc4ccccc4c3C3=C2C(=O)CCC3)cc1 (centres undefined) | 14.9 µM (inactive) | > 100 µM (inactive) | 26.1 µM (inactive) | > 100 µM (inactive) | 16.4 µM (inactive) | > 100 | 40.3 µM (inactive) |  | 19.4 µM (inactive) | > 100 µM (inactive) | 13.1 µM (inactive) | 37.3 µM (inactive) | 25.3 µM (inactive) | > 100 µM (inactive) | 45.4 µM (inactive) | > 100 µM (inactive) | 24.7 µM (inactive) | > 100 µM (inactive) | 17.3 µM (inactive)
CCOC(=O)C1(Cc2ccccc2)Cc2cc3c(cc2C1)CCC3 | 35.7 µM (inactive) | 38.8 µM (inactive) | 40.9 µM (inactive) | 40.7 µM (inactive) | 41.1 µM (inactive) | 27.7 | 23 µM (inactive) | 23.8 µM (inactive) | 38.1 µM (inactive) | 42.8 µM (inactive) | 39 µM (inactive) | 55.8 µM (inactive) | 24.3 µM (inactive) | 28.6 µM (inactive) | 49.4 µM (inactive) | 22.5 µM (inactive) | 30.1 µM (inactive) | 16.5 µM (inactive) | 
Nc1ncc(Cc2nc3ccccc3s2)s1 | > 100 µM (inactive) | > 100 µM (inactive) | 68.9 µM (inactive) | 76.7 µM (inactive) | 47.3 µM (inactive) | > 100 | 35.6 µM (inactive) | > 100 µM (inactive) | > 100 µM (inactive) | 30 µM (inactive) | > 100 µM (inactive) | > 100 µM (inactive) | 52.1 µM (inactive) | > 100 µM (inactive) |  | 56.4 µM (inactive) | 54 µM (inactive) | 30.3 µM (inactive) | > 100 µM (inactive)
Cl.O=C(O)c1cccnc1 | > 100 µM (inactive) | > 100 µM (inactive) | > 100 µM (inactive) | > 100 µM (inactive) | > 100 µM (inactive) | > 100 | > 100 µM (inactive) | > 100 µM (inactive) | > 100 µM (inactive) | > 100 µM (inactive) | 34.8 µM (inactive) | > 100 µM (inactive) | > 100 µM (inactive) | > 100 µM (inactive) |  | > 100 µM (inactive) |  | > 100 µM (inactive) | 
CC1(C)CC(=O)c2c(nc3ccc4ccccc4c3c2-c2ccc(NC(=O)CCCCC(=O)Nc3ccc(-c4c5c(nc6ccc7ccccc7c46)CC(C)(C)CC5=O)cc3)cc2)C1 |  | > 100 µM (inactive) | > 100 µM (inactive) | > 100 µM (inactive) | > 100 µM (inactive) | > 100 | > 100 µM (inactive) | > 100 µM (inactive) | > 100 µM (inactive) | > 100 µM (inactive) | > 100 µM (inactive) | > 100 µM (inactive) | > 100 µM (inactive) | > 100 µM (inactive) | > 100 µM (inactive) | > 100 µM (inactive) | > 100 µM (inactive) | > 100 µM (inactive) | 
NNC(=O)c1ccccc1Nc1ccccc1C(=O)NN | > 100 µM (inactive) | > 100 µM (inactive) | > 100 µM (inactive) | > 100 µM (inactive) | > 100 µM (inactive) | > 100 | > 100 µM (inactive) | > 100 µM (inactive) | > 100 µM (inactive) | > 100 µM (inactive) | > 100 µM (inactive) | > 100 µM (inactive) | > 100 µM (inactive) | > 100 µM (inactive) |  | > 100 µM (inactive) | > 100 µM (inactive) | > 100 µM (inactive) | > 100 µM (inactive)
NC(Cc1nnn[nH]1)C(=O)O (centres undefined) | > 100 µM (inactive) | > 100 µM (inactive) |  | > 100 µM (inactive) | > 100 µM (inactive) | > 100 | > 100 µM (inactive) |  | > 100 µM (inactive) | > 100 µM (inactive) | > 100 µM (inactive) | > 100 µM (inactive) | > 100 µM (inactive) | > 100 µM (inactive) | > 100 µM (inactive) | > 100 µM (inactive) | > 100 µM (inactive) | > 100 µM (inactive) | > 100 µM (inactive)
C=C(C)C12CC(COC(=O)c3ccccc3)C34OC5(OC1C3C1OC1(CO)C(O)C1(O)C(OC(=O)c3ccccc3)C(C)C(C(C)CCCCCCC5O)C14)O2 (centres undefined) | > 100 µM (inactive) | > 49.5 µM (inactive) | 70.1 µM (inactive) | 49.3 µM (inactive) | 63 µM (inactive) | 54 | 72.6 µM (inactive) |  | > 61.8 µM (inactive) | 58.6 µM (inactive) | > 70.3 µM (inactive) | > 100 µM (inactive) | 52 µM (inactive) |  | 60.4 µM (inactive) | < 0.01 µM (active) | > 100 µM (inactive) | 26.4 µM (inactive) | 52.6 µM (inactive)
NS(=O)(=O)c1cccc(NC(=S)NC(=O)Nc2ccc(Cl)c(Cl)c2)c1 | 22.2 µM (inactive) | 20.4 µM (inactive) | 16.6 µM (inactive) | 27.4 µM (inactive) |  | 17.3 | 18.3 µM (inactive) |  | 15.9 µM (inactive) |  | 20 µM (inactive) | 21.2 µM (inactive) | 17.1 µM (inactive) | 19 µM (inactive) | 12.7 µM (inactive) | 16.2 µM (inactive) | 13.3 µM (inactive) | 30.2 µM (inactive) | 22.8 µM (inactive)
CC(=O)c1c(O)c(C)c(O)c(Cc2c(O)c3c(c(C(=O)/C=C/c4ccccc4)c2O)OC(C)(C)C=C3)c1O [ROTTLERIN] | 2.79 µM (inactive) | 2.86 µM (inactive) | 2.26 µM (inactive) | 2.21 µM (inactive) | 2.7 µM (inactive) | 2.52 | 3.13 µM (inactive) | 2.64 µM (inactive) | 2.85 µM (inactive) | 2.68 µM (inactive) | 2.99 µM (inactive) | 2.34 µM (inactive) | 1.82 µM (inactive) | 3.19 µM (inactive) | 1.95 µM (inactive) | 1.07 µM (active) | 2.95 µM (inactive) | 2.99 µM (inactive) | 
